Read-outs that look alike come from different tables or passages of the source. Starred links: 1 amine or outer side, 2 acyl side, 3 side chain; linkers in the order of their positions; H or OH if unused. Non-standard residues stand in square brackets, D forms with d. Residues, ends and D or L forms follow the SMILES beside them. ξ: configuration not given here. *: point of attachment. DOTA = O=C(O)CN1CCN(CC(=O)O)CCN(CC(=O)*)CCN(CC(=O)O)CC1; EuK = O=C(O)CC[C@H](NC(=O)N[C@@H](CCCCN*)C(=O)O)C(=O)O; X2 = O=C(O)CCC(NC(=O)NC(CCCCN*)C(=O)O)C(=O)O; 2Nal = N[C@@H](Cc1ccc2ccccc2c1)C(=O)O; ξ2Nal = NC(Cc1ccc2ccccc2c1)C(=O)O; Trx = NC[C@H]1CC[C@H](C(=O)O)CC1; X1 = O=C(C1CCC(CN[*:1])CC1)[*:2]; Sar = CNCC(=O)O
Columns and labels:
[1] = target: T1, PSMA (Homo sapiens, UniProt Q04609); assay: Competitive cell binding assay against 68Ga-PSMA-10 on LNCaP cells
T1 construct: in vitro using PSMA^+-cells (LNCaP); host or cells: LNCaP
Procedure: PSMA+LNCaP cells (CRL-1740; ATCC; PSMA-positive) and PC-3 cells (CRL-1435; ATCC; PSMA-negative) were cultured in RPMI medium supplemented with 10% fetal calf serum and 2 mmol/L L-glutamine (all from PAA). Cells were grown at 37° C. in humidified air with 5% CO2 and were harvested using trypsin-ethylenediaminetetraacetic acid (trypsin-EDTA; 0.25% trypsin, 0.02% EDTA, Invitrogen). The competitive cell binding assay and internalization experiments were performed as described previously (2). For competitive cell binding, the cells (10^5 per well) were incubated with a 0.8 nM solution of ^68Ga-labeled radioligand [Glu-urea-Lys(Ahx)]2-HBED-CC (PSMA-10, precursor ordered from ABX, Radeberg, Germany) in the presence of 12 different concentrations of DOTA-compound (0-5000 nM, 100 μL/well). After incubation, the mixture was removed and the wells were washed 3 times with PBS using a multiscreen vacuum manifold (Millipore, Billerica, MA). Cell-bound radioactivity was measured using a gamma counter (Perkin Elmer 2480, Wizard, Gamma Counter). The 50% inhibitory concentration (IC50) values were calculated by fitting the data using a nonlinear regression algorithm (GraphPad Software) (see Table 2)

[2] = tested on: PSMA+LNCaP cells; assay: Cell surface binding and internalization of 177Lu labeled compounds, without or with blocking by 2-PMPA; format: cell-based; settings: 7.5 pmol precursor per 10^5 cells, 45 min; for Internalization Block / Surface Block: with blocking by 500 μM 2-PMPA (n = 3); for Internalization / Surface: without blocking (n = 3)
Procedure: (§1) PSMA+LNCaP cells (CRL-1740; ATCC; PSMA-positive) and PC-3 cells (CRL-1435; ATCC; PSMA-negative) were cultured in RPMI medium supplemented with 10% fetal calf serum and 2 mmol/L L-glutamine (all from PAA). Cells were grown at 37° C. in humidified air with 5% CO2 and were harvested using trypsin-ethylenediaminetetraacetic acid (trypsin-EDTA; 0.25% trypsin, 0.02% EDTA, Invitrogen).
(§2) For internalization experiments, 10^5 cells per well were seeded in poly-L-lysine coated 24-well cell culture plates 24 h before incubation. After washing, the cells were incubated with 30 nM of the radiolabeled DOTA-compound (radiolabeled with ^68Ga or ^177Lu) for 45 min at 37° C. (labeling was performed with 5 nmol of precursor peptide). Specific cell uptake was determined by blockage using 500 μM 2-PMPA (2-(phosphonomethyl)pentanedioic acid). Cellular uptake was terminated by washing 3 times with 1 mL of ice-cold PBS. To remove surface-bound radioactivity, cells were incubated twice with 0.5 mL glycine-HCl in PBS (50 mM, pH=2.8) for 5 min. The cells were washed with 1 mL of ice-cold PBS and lysed using 0.3 N NaOH (0.5 mL). The surface-bound and the internalized fractions were measured in a gamma counter. The cell uptake was calculated as percent of the initially added radioactivity bound to 10^5 cells [% ID/10^5 cells] (see Table 2 and Table 2a).

[3] = tested on: PSMA+LNCaP cells; assay: Cell surface binding and internalization of 68Ga-labeled compounds; format: cell-based; settings: specific uptake by blockage with 500 μM 2-PMPA, mean ± SD (n = 3)
Procedure: as §1, §2

[4] = tested on: prostate cancer patients; settings: two patients with extremely advanced and end-stage disease; cited from earlier work
[5] = free ligands, LNCaP, radioligand 68Ga-PSMA-10 0.8 nM, mean ± SD (n = 3), read-out: ki free ligands

T1 sequence (Q04609 whole entry): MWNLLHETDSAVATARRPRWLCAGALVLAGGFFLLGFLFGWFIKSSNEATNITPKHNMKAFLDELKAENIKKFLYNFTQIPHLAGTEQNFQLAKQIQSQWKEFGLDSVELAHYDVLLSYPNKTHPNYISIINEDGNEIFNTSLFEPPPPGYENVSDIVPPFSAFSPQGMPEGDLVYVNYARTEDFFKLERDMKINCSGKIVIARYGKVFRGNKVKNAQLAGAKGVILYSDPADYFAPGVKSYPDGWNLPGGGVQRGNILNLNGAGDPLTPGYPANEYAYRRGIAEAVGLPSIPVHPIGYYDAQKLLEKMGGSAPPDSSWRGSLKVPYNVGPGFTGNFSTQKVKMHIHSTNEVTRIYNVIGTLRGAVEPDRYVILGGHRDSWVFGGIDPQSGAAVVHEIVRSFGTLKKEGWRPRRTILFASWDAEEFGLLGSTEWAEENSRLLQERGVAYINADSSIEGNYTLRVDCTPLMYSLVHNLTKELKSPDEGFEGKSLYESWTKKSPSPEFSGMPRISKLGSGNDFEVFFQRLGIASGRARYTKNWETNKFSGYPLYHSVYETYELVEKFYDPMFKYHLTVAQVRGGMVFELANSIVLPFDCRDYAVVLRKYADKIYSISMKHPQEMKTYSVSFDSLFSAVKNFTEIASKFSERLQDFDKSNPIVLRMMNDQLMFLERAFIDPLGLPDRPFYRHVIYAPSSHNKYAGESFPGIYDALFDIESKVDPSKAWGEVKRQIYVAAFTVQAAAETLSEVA

| SMILES | Ki [1, 5] | Internalization Block [2] | Surface Block [2] | Internalization [2] | Surface [2] | Specifically cell surface bound [3] | Specifically internalized [3] | Response in patients [4] | Ki [1] |
| --- | --- | --- | --- | --- | --- | --- | --- | --- | --- |
| CN(CC(=O)NCC1CCC(C(=O)NC(Cc2ccc3ccccc3c2)C(=O)NCCCCC(NC(=O)NC(CCC(=O)O)C(=O)O)C(=O)O)CC1)C(=O)CN(C)C(=O)CN(C)C(=O)CN(C)C(=O)CN(C)C(=O)CN(C)C(=O)CN(C)C(=O)CN(C)C(=O)CN(C)C(=O)CN(C)C(=O)CN1CCN(CC(=O)O)CCN(CC(=O)O)CCN(CC(=O)O)CC1 (stereo not shown) [DOTA-Sar10-Chx-2-NaI-Lys-urea-Glu] | 96.8 ± 96.4 nM | 0.00 ± 0.00 % AR/10^5 cells | 0.03 ± 0.02 % AR/10^5 cells | 0.10 ± 0.06 % AR/10^5 cells | 0.45 ± 0.08 % AR/10^5 cells | 3.66 ± 1.31 % AR/10^5 cells | 2.31 ± 0.90 % AR/10^5 cells | – | – |
| O=C([O-])CC[C@H](NC(=O)N[C@@H](CCCCNC(=O)[C@H](Cc1ccc2ccccc2c1)NC(=O)C1CCC(CNC(=O)CN2CCN(CC(=O)[O-])CCN(CC(=O)[O-])CCN(CC(=O)[O-])CC2)CC1)C(=O)[O-])C(=O)[O-].[225Ac].[H+].[H+].[H+] (stereo partly shown) [225Ac-PSMA-617] | – | – | – | – | – | – | – | complete remission | – |
| CN(CC(=O)NC[C@H]1CC[C@H](C(=O)N[C@@H](Cc2ccc3ccccc3c2)C(=O)NCCCC[C@H](NC(=O)N[C@@H](CCC(=O)O)C(=O)O)C(=O)O)CC1)C(=O)CN(C)C(=O)CN(C)C(=O)CN1CCN(CC(=O)O)CCN(CC(=O)O)CCN(CC(=O)O)CC1 [DOTA-Sar3-Chx-2-NaI-Lys-urea-Glu] ({DOTA}-[Sar][Sar][Sar][Trx][2Nal]-EuK) | – | 0.01 ± 0.01 % AR/10^5 cells | 0.03 ± 0.01 % AR/10^5 cells | 0.13 ± 0.08 % AR/10^5 cells | 0.65 ± 0.15 % AR/10^5 cells | 4.42 ± 2.05 % AR/10^5 cells | 2.20 ± 0.98 % AR/10^5 cells | – | 29.7 ± 24.2 nM |
| CN(CC(=O)NCC1CCC(C(=O)NC(Cc2ccc3ccccc3c2)C(=O)NCCCCC(NC(=O)NC(CCC(=O)O)C(=O)O)C(=O)O)CC1)C(=O)CN(C)C(=O)CN(C)C(=O)CN(C)C(=O)CN(C)C(=O)CN(C)C(=O)CN(C)C(=O)CN(C)C(=O)CN(C)C(=O)CN(C)C(=O)CN(C)C(=O)CN(C)C(=O)CN(C)C(=O)CN(C)C(=O)CN(C)C(=O)CN1CCN(CC(=O)O)CCN(CC(=O)O)CCN(CC(=O)O)CC1 (stereo not shown) [DOTA-Sar15-Chx-2-NaI-Lys-urea-Glu] | 74.7 ± 36 nM | 0.00 ± 0.00 % AR/10^5 cells | 0.02 ± 0.01 % AR/10^5 cells | 0.11 ± 0.05 % AR/10^5 cells | 0.52 ± 0.03 % AR/10^5 cells | 3.71 ± 1.55 % AR/10^5 cells | 2.03 ± 1.71 % AR/10^5 cells | – | – |
| CN(CC(=O)NCC1CCC(C(=O)NC(Cc2ccc3ccccc3c2)C(=O)NCCCCC(NC(=O)NC(CCC(=O)O)C(=O)O)C(=O)O)CC1)C(=O)CN(C)C(=O)CN(C)C(=O)CN(C)C(=O)CN(C)C(=O)CN1CCN(CC(=O)O)CCN(CC(=O)O)CCN(CC(=O)O)CC1 (stereo not shown) [DOTA-Sar5-Chx-2-NaI-Lys-urea-Glu] ({DOTA}-[Sar][Sar][Sar][Sar][Sar][X1][ξ2Nal]-X2) | 54.3 ± 33.6 nM | 0.00 ± 0.00 % AR/10^5 cells | 0.02 ± 0.01 % AR/10^5 cells | 0.10 ± 0.06 % AR/10^5 cells | 0.47 ± 0.12 % AR/10^5 cells | 2.79 ± 0.50 % AR/10^5 cells | 1.99 ± 1.15 % AR/10^5 cells | – | – |
| O=C(O)CC[C@H](NC(=O)N[C@@H](CCCCNC(=O)[C@H](Cc1ccc2ccccc2c1)NC(=O)[C@H]1CC[C@H](CNC(=O)CN2CCN(CC(=O)O)CCN(CC(=O)O)CCN(CC(=O)O)CC2)CC1)C(=O)O)C(=O)O [PSMA-617, reference compound] | – | – | – | – | – | 3.47 ± 1.53 % AR/10^5 cells | 2.55 ± 1.97 % AR/10^5 cells | – | – |
